Data on one molecule can be found in ChEMBL document CHEMBL6127128, “Discovery of the First-in-Class Dual-Target ROCK/HDAC Inhibitor with Potent Antitumor Efficacy in Vivo That Trigger Antitumor Immunity” (J Med Chem, 2024).

Broadly, the IC50 is the concentration that gives 50% inhibition. Broadly, the logD is lipophilicity at a set pH, counting ionised and neutral species. Lower therefore signals lower lipophilicity. The half-life is the time needed for the level to fall by half in the phase considered. Lower therefore signals rapid decline. The Tmax is the time from dosing to the highest level. The AUC(0-inf) is total exposure, with the tail of the curve extrapolated.

Series [1] addresses Rho-associated protein kinase 1 (Homo sapiens, UniProt Q13464). Kind of series: Inhibition of N-terminal GST-tagged human recombinant ROCK1 (17 to 535 residues) expressed in baculovirus-infected Sf9 cells by HTRF KinEASE assay. Background: Time-resolved FRET reads energy transfer from a long-lived donor to a nearby acceptor.
The target in series [2] is Rho-associated protein kinase 2 (Homo sapiens, UniProt O75116). Put plainly: Inhibition of N-terminal GST-tagged human recombinant wild type ROCK2 (1 to 553 residues) expressed in baculovirus-infected Sf21 cells by HTRF KinEASE assay.
Rho-associated protein kinase 2, sequence (O75116 whole entry, the tested form may be a part): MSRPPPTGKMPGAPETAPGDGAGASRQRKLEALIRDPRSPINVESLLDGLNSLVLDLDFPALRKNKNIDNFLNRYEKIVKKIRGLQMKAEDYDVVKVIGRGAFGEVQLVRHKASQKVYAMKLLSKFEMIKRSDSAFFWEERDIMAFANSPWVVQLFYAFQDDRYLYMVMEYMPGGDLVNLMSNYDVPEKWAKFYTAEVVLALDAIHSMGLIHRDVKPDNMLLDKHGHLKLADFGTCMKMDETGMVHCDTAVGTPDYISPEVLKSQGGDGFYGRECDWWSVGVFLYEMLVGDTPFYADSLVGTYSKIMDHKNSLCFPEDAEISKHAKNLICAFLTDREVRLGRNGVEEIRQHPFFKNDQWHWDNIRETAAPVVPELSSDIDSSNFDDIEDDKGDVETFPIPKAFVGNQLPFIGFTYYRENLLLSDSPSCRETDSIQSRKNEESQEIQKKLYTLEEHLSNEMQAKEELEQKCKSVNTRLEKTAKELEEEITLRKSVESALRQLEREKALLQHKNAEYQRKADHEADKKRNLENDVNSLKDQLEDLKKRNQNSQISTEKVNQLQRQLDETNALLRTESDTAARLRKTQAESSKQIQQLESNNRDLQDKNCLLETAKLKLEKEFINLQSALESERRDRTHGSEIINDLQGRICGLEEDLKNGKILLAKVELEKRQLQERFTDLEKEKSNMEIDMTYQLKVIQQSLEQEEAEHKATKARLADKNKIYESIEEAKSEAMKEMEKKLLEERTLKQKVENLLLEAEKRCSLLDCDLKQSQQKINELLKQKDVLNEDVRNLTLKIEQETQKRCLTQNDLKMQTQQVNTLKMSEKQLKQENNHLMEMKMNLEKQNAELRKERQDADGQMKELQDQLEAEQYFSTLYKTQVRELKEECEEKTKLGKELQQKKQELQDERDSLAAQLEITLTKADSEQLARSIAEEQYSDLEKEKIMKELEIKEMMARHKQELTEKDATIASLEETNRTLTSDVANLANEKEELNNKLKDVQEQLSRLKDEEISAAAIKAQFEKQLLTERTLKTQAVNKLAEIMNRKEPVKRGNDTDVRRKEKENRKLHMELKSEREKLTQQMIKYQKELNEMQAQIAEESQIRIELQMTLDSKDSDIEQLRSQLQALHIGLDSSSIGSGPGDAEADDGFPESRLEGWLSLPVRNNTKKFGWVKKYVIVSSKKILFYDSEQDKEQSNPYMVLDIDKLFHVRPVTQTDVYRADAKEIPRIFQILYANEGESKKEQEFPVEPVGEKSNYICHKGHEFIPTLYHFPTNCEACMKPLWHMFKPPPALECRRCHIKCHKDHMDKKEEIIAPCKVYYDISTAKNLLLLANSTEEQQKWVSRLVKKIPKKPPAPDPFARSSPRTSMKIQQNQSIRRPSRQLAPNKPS
The subject of series [3] is MDA-MB-231. Kind of series: Cytotoxicity against human MDA-MB-231 cells assessed as reduction in cell viability incubated for 72 hrs by SRB assay. It is filed as functional, cell-based. Conditions: MDA-MB-231, 72 h.
Another series deals with Histone deacetylase 1 (Homo sapiens, UniProt Q13547). Kind of series: Inhibition of HDAC1 (unknown origin) using Ac-Leu-Gly-Lys(Ac)-AMC as substrate preincubated for 5 mins followed by substrate addition for 30 mins and measured following trypsin addition for 30 mins by fluorescence based analysis.
Histone deacetylase 1, sequence (Q13547 whole entry): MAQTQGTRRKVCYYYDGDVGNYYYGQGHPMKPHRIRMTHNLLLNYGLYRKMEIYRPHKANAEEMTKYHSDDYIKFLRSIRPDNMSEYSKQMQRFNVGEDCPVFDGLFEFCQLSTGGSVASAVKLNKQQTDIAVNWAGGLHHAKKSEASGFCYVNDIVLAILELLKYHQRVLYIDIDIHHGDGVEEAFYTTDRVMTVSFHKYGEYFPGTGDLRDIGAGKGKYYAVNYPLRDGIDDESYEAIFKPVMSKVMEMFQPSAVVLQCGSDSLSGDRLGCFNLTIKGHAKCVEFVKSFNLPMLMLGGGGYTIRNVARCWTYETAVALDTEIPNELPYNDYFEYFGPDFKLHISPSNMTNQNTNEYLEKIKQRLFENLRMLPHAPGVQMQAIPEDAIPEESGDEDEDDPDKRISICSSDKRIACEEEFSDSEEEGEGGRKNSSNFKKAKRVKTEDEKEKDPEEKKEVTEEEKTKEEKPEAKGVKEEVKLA
Another series has as its target Histone deacetylase 2 (Homo sapiens, UniProt Q92769). Put plainly: Inhibition of HDAC2 (unknown origin) using Ac-Leu-Gly-Lys(Ac)-AMC as substrate preincubated for 5 mins followed by substrate addition for 30 mins and measured following trypsin addition for 30 mins by fluorescence based analysis.
The target in another series is Histone deacetylase 3 (Homo sapiens, UniProt O15379). Kind of series: Inhibition of HDAC3 (unknown origin) using Ac-Leu-Gly-Lys(Ac)-AMC as substrate preincubated for 5 mins followed by substrate addition for 30 mins and measured following trypsin addition for 30 mins by fluorescence based analysis.
Histone deacetylase 3, sequence (O15379 whole entry): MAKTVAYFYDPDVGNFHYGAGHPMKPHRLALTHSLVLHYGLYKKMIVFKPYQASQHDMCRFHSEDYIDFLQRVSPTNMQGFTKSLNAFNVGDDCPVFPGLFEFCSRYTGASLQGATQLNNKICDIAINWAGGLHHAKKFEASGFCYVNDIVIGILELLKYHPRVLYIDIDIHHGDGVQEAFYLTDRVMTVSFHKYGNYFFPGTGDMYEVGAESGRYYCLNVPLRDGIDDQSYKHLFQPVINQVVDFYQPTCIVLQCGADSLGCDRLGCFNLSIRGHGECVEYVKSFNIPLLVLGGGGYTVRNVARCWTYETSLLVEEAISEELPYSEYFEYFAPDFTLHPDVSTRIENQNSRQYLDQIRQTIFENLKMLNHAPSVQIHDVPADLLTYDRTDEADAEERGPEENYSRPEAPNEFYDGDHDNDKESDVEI
The target of series [4] is T1, Polyamine deacetylase HDAC10 (Homo sapiens, UniProt Q969S8).
T1 sequence (Q969S8 whole entry): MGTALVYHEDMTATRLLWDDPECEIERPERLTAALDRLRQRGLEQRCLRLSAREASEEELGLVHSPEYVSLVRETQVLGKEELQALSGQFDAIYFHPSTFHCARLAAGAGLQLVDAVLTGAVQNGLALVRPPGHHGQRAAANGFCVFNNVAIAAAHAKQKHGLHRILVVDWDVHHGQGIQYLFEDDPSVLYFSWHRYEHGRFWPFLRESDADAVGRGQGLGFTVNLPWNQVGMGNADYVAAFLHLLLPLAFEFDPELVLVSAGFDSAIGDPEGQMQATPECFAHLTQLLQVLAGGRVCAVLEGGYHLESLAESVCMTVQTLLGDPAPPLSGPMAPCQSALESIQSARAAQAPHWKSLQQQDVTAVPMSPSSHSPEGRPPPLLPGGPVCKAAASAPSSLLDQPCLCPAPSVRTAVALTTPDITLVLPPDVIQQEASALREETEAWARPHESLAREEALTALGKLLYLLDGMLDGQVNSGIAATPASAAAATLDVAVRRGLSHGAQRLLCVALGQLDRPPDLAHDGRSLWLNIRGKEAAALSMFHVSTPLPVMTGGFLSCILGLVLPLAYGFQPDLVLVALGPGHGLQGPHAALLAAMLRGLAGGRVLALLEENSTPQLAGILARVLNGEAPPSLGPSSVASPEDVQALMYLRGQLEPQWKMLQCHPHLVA
Kind of series: Inhibition of HDAC10 (unknown origin) using Ac-Arg-His-Lys(Ac)-Lys(Ac)-AMC as substrate preincubated for 5 mins followed by substrate addition for 30 mins and measured following trypsin addition for 30 mins by fluorescence based analysis.

For another series, the target named is T2, Histone deacetylase 11 (Homo sapiens, UniProt Q96DB2).
T2 sequence (Q96DB2 whole entry): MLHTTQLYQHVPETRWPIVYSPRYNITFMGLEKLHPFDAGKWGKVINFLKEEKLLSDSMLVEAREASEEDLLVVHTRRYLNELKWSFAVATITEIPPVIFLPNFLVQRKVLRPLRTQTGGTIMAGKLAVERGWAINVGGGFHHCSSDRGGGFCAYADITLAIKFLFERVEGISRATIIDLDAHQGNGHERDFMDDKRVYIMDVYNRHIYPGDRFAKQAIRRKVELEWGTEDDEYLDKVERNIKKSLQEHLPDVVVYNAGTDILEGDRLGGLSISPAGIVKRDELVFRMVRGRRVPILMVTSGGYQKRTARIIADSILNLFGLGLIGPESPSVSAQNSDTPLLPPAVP
Put plainly: Inhibition of HDAC11 (unknown origin) using Ac-Leu-Gly-Lys(Ac)-AMC as substrate preincubated for 5 mins followed by substrate addition for 30 mins and measured following trypsin addition for 30 mins by fluorescence based analysis.

For series [5], the system named is MDA-MB-231. Put plainly: Induction of immunogenic cell death-associated DAMP release in human MDA-MB-231 cells assessed as increase in CRT expression level at 1 to 10 uM incubated for 24 hrs by western blot analysis. It is filed as functional, cell-based. Conditions: dose 1-10 µM. Background: In western blotting, separated proteins are transferred to a membrane and probed.

For series [6], the system named is 4T1. Put plainly: Cytotoxicity against mouse 4T1 cells assessed as reduction in cell viability. Format: functional, cell-based.
Series [7] concerns 4T1. Put plainly: Antitumor activity against mouse 4T1 cells implanted in Balb/c mouse assessed as tumor weight at 50 mg/kg, po administered daily for 15 days. Format: functional. Conditions: time 15 day.
The subject of series [8] is 4T1. Kind of series: animal or person. It is filed as functional. Conditions: Mus musculus, 4T1, 360 h, route po, time 15 day, read-out: TGI.
Description: Antitumor activity against mouse 4T1 cells implanted in Balb/c mouse assessed as inhibition of tumor growth rate at 50 mg/kg, po administered daily for 15 days
Series [9] has as its system 4T1. Put plainly: Antitumor activity against mouse 4T1 cells implanted in Balb/c mouse assessed as inhibition of tumor growth rate at 25 mg/kg, po administered daily for 15 days. Format: functional. Conditions: 4T1, 360 h, time 15 day, read-out: TGI.
The nature of series [10]: Toxicity against Balb/c mouse implanted with mouse 4T1 cells assessed as effect on morphological changes in lung at 25 to 50 mg/kg, po administered daily for 15 days by Hematoxylin-Eosin staining based analysis. Format: organism-based. To be noted: in vivo, 360 h, dose 25-50 mg/kg, time 15 day.
The nature of series [11]: Toxicity against Balb/c mouse implanted with mouse 4T1 cells assessed as effect on morphological changes in kidneys at 25 to 50 mg/kg, po administered daily for 15 days by Hematoxylin-Eosin staining based analysis. It is filed as organism-based. Conditions: in vivo, 360 h, dose 25-50 mg/kg, time 15 day.
A short description of series [12]: Lipophilicity, log D of the compound at pH 7.4. It is filed as physicochemical. To be noted: buffer.
A short description of series [13]: Chemical stability of the compound in PBS buffer at pH 7.4 measured after 10 days. Format: physicochemical. To be noted: time 10 day, read-out: Stability.
Series [14] is described as follows: Half-life in Balb/c mouse at 50 mg/kg, po measured for 24 hrs by LC-MS/MS analysis. Format: ADME, organism-based. Conditions: in vivo.
A short description of series [15]: Tmax in Balb/c mouse at 50 mg/kg, po measured for 24 hrs by LC-MS/MS analysis. Format: ADME, organism-based. Conditions: in vivo.
Series [16] can be described thus: AUC (0 to infinity) in Balb/c mouse at 50 mg/kg, po measured for 24 hrs by LC-MS/MS analysis. Format: ADME, organism-based. To be noted: in vivo.
A further series deals with Mus musculus. Kind of series: Induction of immunogenic cell death-associated DAMP release in tumor of Balb/c mouse implanted with mouse 4T1 cells assessed as extranuclear diffusion of HMGB1 by measuring decrease in red fluorescence aggregates at 25 to 50 mg/kg, po administered daily for 15 days by immunofluorescence analysis. It is filed as functional, organism-based. Conditions: dose 25-50 mg/kg, time 15.0 day.

Series [17] has as its system 4T1. Put plainly: Antitumor immunity against mouse 4T1 cells implanted in Balb/c mouse assessed as increase in CD4+ T cells in tumor tissue at 50 mg/kg, po administered daily for 15 days by flow cytometry relative to SAHA. Format: functional. To be noted: time 15 day. (In flow cytometry, cells or beads pass a laser one at a time.)

The source made the active and inactive calls. Bounds are passed on as bounds.

Histone deacetylase 2, sequence (Q92769 whole entry): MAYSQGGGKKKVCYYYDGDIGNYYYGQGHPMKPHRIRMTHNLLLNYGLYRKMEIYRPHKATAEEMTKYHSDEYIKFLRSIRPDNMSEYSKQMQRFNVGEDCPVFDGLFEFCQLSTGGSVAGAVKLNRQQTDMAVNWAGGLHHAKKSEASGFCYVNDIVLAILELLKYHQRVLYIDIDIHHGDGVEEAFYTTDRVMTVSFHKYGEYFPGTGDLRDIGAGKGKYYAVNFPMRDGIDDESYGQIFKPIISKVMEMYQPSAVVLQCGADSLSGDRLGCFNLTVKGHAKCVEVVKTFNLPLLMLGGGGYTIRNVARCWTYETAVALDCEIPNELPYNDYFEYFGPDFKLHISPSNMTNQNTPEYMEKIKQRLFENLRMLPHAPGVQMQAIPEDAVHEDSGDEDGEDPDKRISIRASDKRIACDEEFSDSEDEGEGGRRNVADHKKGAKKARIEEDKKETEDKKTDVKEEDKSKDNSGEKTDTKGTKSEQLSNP
Rho-associated protein kinase 1, sequence (Q13464 whole entry, the tested form may be a part): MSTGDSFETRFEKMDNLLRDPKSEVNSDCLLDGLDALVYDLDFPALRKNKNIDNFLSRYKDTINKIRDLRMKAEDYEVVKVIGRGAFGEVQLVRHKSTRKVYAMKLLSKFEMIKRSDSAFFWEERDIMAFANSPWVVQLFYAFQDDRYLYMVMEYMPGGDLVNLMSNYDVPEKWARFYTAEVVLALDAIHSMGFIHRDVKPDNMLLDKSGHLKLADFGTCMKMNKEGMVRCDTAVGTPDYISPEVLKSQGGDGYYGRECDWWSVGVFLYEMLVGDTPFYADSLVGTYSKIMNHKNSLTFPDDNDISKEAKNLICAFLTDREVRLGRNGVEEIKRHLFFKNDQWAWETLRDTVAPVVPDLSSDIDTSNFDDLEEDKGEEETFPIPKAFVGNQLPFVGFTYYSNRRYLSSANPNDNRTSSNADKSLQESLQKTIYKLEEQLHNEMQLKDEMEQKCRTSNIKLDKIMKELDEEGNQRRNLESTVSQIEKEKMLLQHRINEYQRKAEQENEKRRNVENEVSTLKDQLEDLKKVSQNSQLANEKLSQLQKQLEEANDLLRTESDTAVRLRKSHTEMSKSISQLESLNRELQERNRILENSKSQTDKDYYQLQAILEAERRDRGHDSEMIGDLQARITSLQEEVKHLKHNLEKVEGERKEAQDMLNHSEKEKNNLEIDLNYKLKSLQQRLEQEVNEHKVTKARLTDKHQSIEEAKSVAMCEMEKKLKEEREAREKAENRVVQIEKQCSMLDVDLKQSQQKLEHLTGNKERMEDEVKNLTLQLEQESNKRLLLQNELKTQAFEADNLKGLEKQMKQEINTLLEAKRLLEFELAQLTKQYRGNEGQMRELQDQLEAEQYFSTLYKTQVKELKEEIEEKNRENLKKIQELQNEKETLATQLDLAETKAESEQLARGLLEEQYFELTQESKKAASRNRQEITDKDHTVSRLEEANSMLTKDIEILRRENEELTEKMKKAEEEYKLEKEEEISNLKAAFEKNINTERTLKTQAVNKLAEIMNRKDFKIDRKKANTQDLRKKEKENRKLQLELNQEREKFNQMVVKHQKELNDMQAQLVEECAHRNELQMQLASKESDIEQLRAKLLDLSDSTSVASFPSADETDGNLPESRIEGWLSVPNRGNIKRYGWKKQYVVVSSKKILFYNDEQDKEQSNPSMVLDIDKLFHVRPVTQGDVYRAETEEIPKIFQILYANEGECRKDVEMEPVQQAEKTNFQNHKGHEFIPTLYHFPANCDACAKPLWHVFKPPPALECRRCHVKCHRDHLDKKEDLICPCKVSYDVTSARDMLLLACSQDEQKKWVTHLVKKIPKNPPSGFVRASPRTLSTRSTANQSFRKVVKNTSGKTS

In the case of `O=C(CCCCCCNC(=O)c1cc2cc(-c3cn[nH]c3)ccc2s1)NO`, the 50% inhibitory concentration (IC50) in series [1] came to 58.2 nM; in [2] it was 255 nM; with MDA-MB-231 [3] it was 370 nM; against Histone deacetylase 1, 9.09 nM; against Histone deacetylase 2, 8.03 nM; against Histone deacetylase 3, 6.26 nM. The half-maximal inhibitory concentration (IC50) in series [4] is more than 10000 nM; at Histone deacetylase 11, more than 10000 nM; in the series with 4T1 [6] it was 730 nM. Further, the outcome in the series with MDA-MB-231 [5] and with Mus musculus was Active. For the same molecule, the Activity is given as 0.16 g with 4T1 [7], “Non-Toxic” in series [10] and “Non-Toxic” in series [11]. Besides, the inhibition in vivo at 50 mg/kg in the series with 4T1 [8] was determined as 69.4%. In the series with 4T1 [9], the inhibition in vivo at 25 mg/kg worked out at 45%. This molecule also returned a pH-dependent lipophilicity (logD) in series [12] of 3.29. Besides, the remaining at 240 h in series [13] came to 98.5%. In series [14], this molecule showed a half-life of 12.2 h. For the same molecule, the Tmax in series [15] came to 1.8 min. Further, the AUC(0-inf) in series [16] is 5.95 ng·h/mL. Moreover, the “fold change (FC)” value in the series on 4T1 [17] came to 1.82.
